Experimental data published in PubChem BioAssay (NCI).
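Five compound concentrations were applied to cells in 96-well plates for 48 hours; endpoints were derived by simple linear interpolation of the resulting dose-response curve. The concentration for 50% growth inhibition is given as GI50. TGI: concentration producing complete growth inhibition.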

Key:
Assay in all cases: DTP human tumour cell line panel, 48 h
[1] = test system: M14 melanoma
[2] = test system: U251 CNS
[3] = test system: SF-295 CNS
[4] = test system: SW-620 colon
[5] = test system: LOX IMVI melanoma
[6] = test system: MOLT-4 leukemia
[7] = test system: HCT-15 colon
[8] = test system: HL-60(TB) leukemia
[9] = test system: MCF7 breast
[10] = test system: DU-145 prostate

Structure (SMILES)	GI50 [1] [µM]	TGI [1] [µM]	GI50 [2] [µM]	TGI [2] [µM]	GI50 [3] [µM]	TGI [3] [µM]	GI50 [4] [µM]	TGI [4] [µM]	GI50 [5] [µM]	TGI [5] [µM]	GI50 [6] [µM]	TGI [6] [µM]	GI50 [7] [µM]	TGI [7] [µM]	GI50 [8] [µM]	TGI [8] [µM]	GI50 [9] [µM]	TGI [9] [µM]	GI50 [10] [µM]	TGI [10] [µM]
COc1cc[c]([Sb]([Br])([CH]=C(C)C)([CH]=C(C)C)[CH]=C(C)C)cc1	6.29	42.5	9.37	72.8	18.4	87.2	6.46	> 100	15.7	> 100	10.6	> 100	40.5	> 100	1.73	13.7	–	–	–	–
CCOC(=O)C1(Br)C(c2ccccc2)NC(=O)N(C2OC(COC(=O)c3ccccc3)C(OC(=O)c3ccccc3)C2OC(=O)c2ccccc2)C1(C)Br (centres undefined)	–	> 63.6	–	> 100	–	> 100	–	22.4	–	> 100	–	59	–	> 50.1	–	–	–	–	–	–
CCOC(=O)C12CCSC1C1(C#N)C(C#N)=CC2(N=P(c2ccccc2)(c2ccccc2)c2ccccc2)n2c(=O)n(-c3ccccc3)c(=O)n21 (centres undefined)	–	> 100	–	> 100	–	> 100	–	> 100	–	> 100	–	88.1	–	> 100	–	71.5	–	–	–	–
COc1ccc(C(=O)Nc2ccc(S(=O)(=O)NCC(=O)O)cc2)cc1	–	> 100	–	> 100	–	> 100	–	> 100	–	> 100	–	> 100	–	> 100	–	> 100	–	–	–	–
Cc1ccc(/C=N/NS(=O)(=O)c2ccccc2)cc1	–	> 100	–	> 100	–	> 100	–	> 100	–	> 100	–	> 100	–	> 100	–	> 100	–	–	–	–
N.N.N.N.N.N#N.[Cl-].[Os+7]	> 100	> 100	> 100	> 100	> 100	> 100	> 100	> 100	> 100	> 100	–	–	> 100	> 100	–	–	–	–	–	–
NCCn1ccc(NC(c2ccccc2)(c2ccccc2)c2ccccc2)nc1=O	–	–	–	39.4	–	36.1	–	35.9	–	30.5	–	44.8	–	> 100	–	38.5	–	–	–	–
O=C(c1ccccn1)c1nc(-c2ccc(Cl)c(Cl)c2)nc2ccc(Cl)cc12	–	> 100	–	> 100	–	> 100	–	> 100	–	–	–	> 100	–	> 100	–	> 100	–	–	–	–
CCN1CCC2(CC1)NC(=O)c1c(c3ccc(Cl)c(Cl)c3n1C)C2C#N (centres undefined)	1.62	3.1	2.83	12	1.79	4.35	1.94	3.77	1.65	3.34	2.43	8.66	1.81	4.75	2.01	6.02	1.56	3.28	–	–
Fc1c[c-]c(-c2ccccn2)c(F)c1.[CH3-].[Pt+2].c1ccc([PH+](c2ccccc2)c2ccccn2)cc1	–	–	1.88	6.02	4.91	62.5	1.92	4.55	1.28	2.69	1.04	> 100	1.44	3.59	2.05	7.28	1.22	3.23	1.79	3.92
